The results in this text go back to patent US20160287534A1, “METHODS FOR REVERSING FIBROSIS” (The University of Connecticut, priority 2015, published 2016).

Assay [1] relates to LX-2 cells. Briefly: qRT-PCR of fibrogenic genes in LX-2 cells (Example 2). Format: cell-based. As for the experimental part: (§1) Mouse primary HSCs were isolated from C57BL/6J, nuclear erythroid 2-related factor 2 (NRF2) knockout (Nrf2−/−), and wild-type mice using a pronase/collagenase digestion method as described herein Example 1. The cells were then cultured on untreated petri dishes (BD Falcon, Franklin Lakes, N.J.), and maintained in a low-glucose DMEM medium supplemented with 10% FBS, 4 mM L-glutamine, and P/S (100 U/100 μg per mL). Human primary HSCs (Zen-Bio, Research Triangle Park, N.C.) were maintained in a low-glucose DMEM medium containing 2% FBS, 4 mM L-glutamine, 1× nonessential amino acids, 1× vitamins, and P/S (100 U/100 μg per mL). The cells were seeded on a collagen-coated plate for experiments (Sarstedt, Newton, N.C.). LX-2 cells, kindly provided by Dr. Scott Friedman at the Icahn School of Medicine at Mount Sinai (New York, N.Y.), were maintained in a low-glucose DMEM supplemented with 2% FBS, 4 mM L-glutamine, and P/S (100 U/100 μg per mL). All cells were cultured in a 37° C. humidified cell culture chamber with 5% CO2. Cell culture supplies were purchased from HyClone unless stated otherwise (Thermo Scientific, Logan, Utah).
Total RNA extraction, cDNA synthesis, and qRT-PCR were conducted using a Bio-Rad CFX96 Real-Time system (Bio-Rad, Hercules, Calif.) as previously described (Id.). Primer sequences will be available upon request. […]
In general terms: Quantitative PCR measures a nucleic acid by following its amplification.

In the next assay the test system is mouse primary HSCs. Put plainly: ROS measurement in mouse primary HSCs. The class given is cell-based. The settings on record: ASTX treatment for 6 d during activation (FIG. 8A). As for the experimental part: Mouse primary qHSCs were seeded on an uncoated black 24-well μ-Plate (Ibidi, Verona, Wis.). At day 6 of activation, cellular ROS levels were measured using dichlorofluorescin (Sigma-Aldrich, St. Louis, Mo.) as described (Id.). The cells were then fixed with 4% formaldehyde for 10 min, and incubated with 0.1% CellTag 700 stain (Li—COR, Lincoln, Nebr.), a fluorescent stain, for cell number normalization, for 1 h. Fluorescent signals were obtained by an Odyssey® CLx Infrared Imaging System (Li—COR) and a Li—COR Image Studio software. Data were expressed as relative fluorescent intensity divided by total cell stain signal.

The next assay deals with aHSCs. Briefly: Reversion of aHSCs to iHSCs: morphology, qRT-PCR, α-SMA protein. Format: cell-based, mouse. The method, then: ASTX, provided by Fuji Chemical Industry Co., Ltd. (Toyama, Japan), was prepared in DMSO as described herein in Example 1. After plated on an uncoated dish, mouse qHSCs were incubated with 25 μM ASTX during activation. aHSCs, which were prepared by culturing qHSCs on an uncoated dish for 6 d, were incubated with 25 μM ASTX for 2 or 4 more days. Also, cells were incubated with 3 μM tert-butyl hydrogen peroxide (tBHP, Thermo Scientific) for 12 h with or without 25 μM ASTX. Medium containing ASTX was replenished daily and DMSO vehicle control was always run in parallel. Human primary HSC were treated with 25 μM ASTX for 24 h, after which they were activated by 3 ng/mL of TGFβ1 (Peprotech, Rocky Hill, N.J.) for 24 h.
Total RNA extraction, cDNA synthesis, and qRT-PCR were conducted using a Bio-Rad CFX96 Real-Time system (Bio-Rad, Hercules, Calif.) as previously described (Id.). Primer sequences will be available upon request.
Whole cell lysates and human tissue protein extracts were prepared and Western blot analysis were performed as described (Id.) using antibodies against α-SMA (Sigma, St. Louis, Mo.), HDAC3 (Santa Cruz Biotechnology, Santa Cruz, Calif.), HDAC4 (Santa Cruz Biotechnology), HDAC9 (Abcam, Cambridge, Mass.; Novus Biologicals, Littleton, Colo.), Col1A1 (Sigma). β-tubulin (Santa Cruz) or glyceraldehyde 3-phosphate dehydrogenase (GAPDH) (Santa Cruz) was used as a loading control.

Assay [2] has as its system LX-2 cells. Briefly: Reactive oxygen species (ROS) measurement in LX-2 cells stimulated with TGFβ1 or tBHP. Format: cell-based. As for the experimental part:
Cellular ROS levels were measured in LX-2 cells as previously described (see Lee et al. J. Nutr. Biochem. 2013, vol. 25, iss. 4, pp. 404-411). Briefly, LX-2 cells were plated in a black 24-well plate (Wallac Oy, Turku, Finland). When cells reached ˜90% confluency, they were pre-incubated with 5, 10 or 25 μM ASTX for 24 h and subsequently stimulated with 2 ng/mL TGFβ1 or 10 μM tert-butyl hydrogen peroxide (tBHP, Sigma, St. Louis, Mo.) for additional 24 h. cells were then incubated with 5 μM dichlorofluorescein (Sigma, St. Louis, Mo.) for 30 min and fluorescence was read at an excitation wavelength of 485 nm and an emission wavelength of 530 nm. The data were expressed as fluorescent intensity per μg of cell protein.

The next assay concerns Smad3. Briefly: Western blot of Smad3 phosphorylation and nuclear translocation in LX-2 cells. Format: cell-based. As for the experimental part:
Whole cell lysates were prepared to conduct Western blot as we previously described (Id.) using antibodies against α-SMA (Sigma, St. Louis, Mo.), Smad3 (Millipore, Billerica, Mass.), and phospho-Smad3 (Cell Signaling, Danvers, Mass.). β-Tubulin (Santa Cruz Biotechnology, Santa Cruz, Calif.) or β-actin (Sigma, St. Louis, Mo.) was used as a loading control. For Western blot of nuclear and cytoplasmic cell fractions, the fractions were prepared using a nuclear extraction kit (Cayman, Ann Arbor, Mich.) as previously described (see Ku et al. Biochim. Biophys. Acta Gen. Subj. 2013, vol. 1830, pp. 2981-2988). Glyceraldehyde 3-phosphate dehydrogenase (GAPDH) (Santa Cruz Biotechnology, Santa Cruz, Calif.) and lamin B (Santa Cruz Biotechnology) were used as a loading control for cytoplasmic and nuclear fractions, respectively. Blots were developed using Westpico horseradish peroxidase chemiluminescence (Pierce, Rockford, Ill.) and images were analyzed using a Chemidoc XRS+system (Bio-Rad) and Image Lab software (Bio-Rad).

A further assay concerns human primary HSCs. Put plainly: qRT-PCR of fibrogenic genes in human primary HSCs. The class given is cell-based. The method, then:
as §1
ASTX, provided by Fuji Chemical Industry Co., Ltd. (Toyama, Japan), was prepared in DMSO as described herein in Example 1. […]

Each structure is given as a SMILES string.

On to `CC1=C(/C=C/C(C)=C/C=C/C(C)=C/C=C/C=C(C)/C=C/C=C(C)/C=C/C2=C(C)C(=O)C(O)CC2(C)C)C(C)(C)CC(O)C1=O` (stereo not shown) [ASTX, astaxanthin], for which, in the assay on LX-2 cells [1] (LX-2 cells pretreated with ASTX 12 h (FIG. 13A)), the “basal levels of α-SMA and Col1A1 expression” value was “repressed”. Moreover, in the assay on LX-2 cells [1] (LX-2 cells, ASTX 12 h, then 3 ng/mL TGFβ1 12 h (FIG. 13A)), the “α-SMA and Col1A1 expression induced by TGFβ1” value is recorded as “attenuated”. Moreover, in the assay with mouse primary HSCs, the “cellular ROS levels” value is given as “significantly lowered”. The “cell morphology (lipid droplets)” value with aHSCs (aHSCs treated with ASTX for 2 or 4 d (FIG. 9A)) is “reappearance of cytoplasmic lipid droplets”. Also, the “α-SMA and Col1A1 mRNA” value in the assay with aHSCs (aHSCs treated with ASTX for 2 d (FIG. 9B)) is recorded as “significantly decreased”. Also, in the assay with aHSCs (aHSCs, ASTX for 2 d (FIG. 9D)), the “ADRP mRNA levels, control vs ASTX-treated” value is listed as “no significant difference”; the “LRAT mRNA” value is on record as “markedly increased”; the “SREBP1c mRNA levels” value is listed as “significantly decreased”. Besides, the α-SMA protein result with aHSCs (aHSCs, day 8, ASTX for 2 d (FIG. 9C)) is “significantly decreased”. In addition, the “increase in cellular ROS levels induced by TGFβ1” value in the assay on LX-2 cells [2] (25 μM ASTX, 2 ng/mL TGFβ1) was “completely abolished”. For the same molecule, the “increase in cellular ROS levels induced by tBHP” value in the assay on LX-2 cells [2] (25 μM ASTX, 10 μM tBHP) is “completely abolished”. In addition, the “cellular ROS levels increased by TGFβ1 and tBHP” value in the assay with LX-2 cells [2] (LX-2 cells pretreated with 5, 10 or 25 μM ASTX 24 h (FIGS. 1B, 1C)) was “decreased”. Besides, the “TGFβ1-induced phosphorylation of Smad3” value in the assay with Smad3 (25 μM ASTX (FIG. 5A)) is on record as “significantly inhibited”. Moreover, the “nuclear translocation of Smad3” value with Smad3 (25 μM ASTX (FIG. 5B)) is recorded as “reduced”. Further, in the assay with human primary HSCs (25 μM ASTX 24 h, then TGFβ1 3 ng/ml 24 h (FIGS. 11A, 11B)), the “TGFβ1-mediated induction of α-SMA and Col1A1 mRNA” value was “attenuated”. In addition, in the assay on human primary HSCs (25 μM ASTX (FIGS. 11A, 11B)), the “basal levels of α-SMA and Col1A1 mRNA” value was “attenuated”.
